# Source: patent US11013698B2, “Combinations of LSD1 inhibitors for the treatment of hematological malignancies” (Oryzon Genomics S.A., priority 2016, dated 2021)
# Read-outs that look alike come from different tables or passages of the source.
# Key:
# Assay type in all cases: cell-based
# [1] = system: OCI-AML3; test: Viability assay (96 hours), Alamar Blue; conditions: for Reduction of viability (compared to vehicle controls): serial 1:3 dilution; for EC50: Homo sapiens, read-out: EC50 (viability)
# Method: (§1) AML cell lines were maintained in RPMI 10% FBS medium at 37° C. in a humidified incubator with controlled 5% CO2 atmosphere. Cell freezing and thawing was performed following recommendation from ATCC. Genetic profiling of the cell lines used is available in table 2. Cells were seeded at the optimal density (to guarantee linear growth during the treatment), as previously determined (4000 cells/well, except 16000 cells/well in the case of KASUMI-1 cells), in 96-well plates with 50 μL of medium. Three wells were reserved for each experimental condition; medium-only and vehicle-treated controls were also added for background correction and normalization respectively. […] Alamar Blue® is a cell viability indicator that uses the natural reducing power of living cells to convert resazurin to the fluorescent molecule, resorufin^43.
# [2] = system: THP-1; test: Viability assay (96 hours), Alamar Blue; conditions: for Reduction of viability (compared to vehicle controls): serial 1:3 dilution; for EC50: Homo sapiens, read-out: EC50 (viability)
# Method: as §1
# [3] = system: HL-60; test: Viability assay (96 hours), Alamar Blue; conditions: for Reduction of viability (compared to vehicle controls): serial 1:3 dilution; for EC50: Homo sapiens, read-out: EC50 (viability)
# Method: as §1
# [4] = system: KASUMI-1; test: Viability assay (96 hours), Alamar Blue; conditions: for Reduction of viability (compared to vehicle controls): serial 1:3 dilution; for EC50: Homo sapiens, read-out: EC50 (viability)
# Method: as §1
# [5] = system: MOLM-13; test: Viability assay (96 hours), Alamar Blue; conditions: for Reduction of viability (compared to vehicle controls): serial 1:3 dilution; for EC50: Homo sapiens, read-out: EC50 (viability)
# Method: as §1
# [6] = system: MV(4;11); test: Viability assay (96 hours), Alamar Blue; conditions: for Reduction of viability (compared to vehicle controls): serial 1:3 dilution; for EC50: Homo sapiens, read-out: EC50 (viability)
# Method: as §1
# [7] = system: OCI-AML2; test: Viability assay (96 hours), Alamar Blue; conditions: for Reduction of viability (compared to vehicle controls): serial 1:3 dilution; for EC50: Homo sapiens, read-out: EC50 (viability)
# Method: as §1
# [8] = system: MOLT-4 cells; test: Viability assay (10 days), Alamar Blue; conditions: MOLT4, 10 days
# Method: MOLT4 cells were maintained in RPMI 10% FBS medium at 37° C. in a humidified incubator with controlled 5% CO2 atmosphere. Cell freezing and thawing was performed following recommendation from ATCC. Genetic profiling of the cell lines used is available in table 4.
# Three wells were reserved for each experimental condition; medium-only and vehicle-treated controls were also added for background correction and normalization respectively. After seeding, 50 μL of medium containing 8 1:3 serial dilution of ORY-1001 were added to the cells (range 0.015-100 nM). Cells were then incubated for 6 days at 37° C. in a controlled 5% CO2 atmosphere. On the sixth day, 100 μL of medium with serial dilutions of ORY-1001 (as described previously) or vehicle were added to the cells. Medium without compound (100μ) was added to background control.
# After 4 additional days of incubation, cell viability was evaluated using the Alamar Blue® staining as detailed in the section 1.1.2.
# [9] = system: MOLT-4 cells; test: Viability after shorter treatment (96 hours); conditions: MOLT-4, 96 hours treatment (data not shown)
# [10] = KASUMI-1, 96 hours, single agent
# [11] = MOLM-13, 96 hours, single agent
# [12] = OCI-AML-3, OCI-AML3, 96 hours, single agent
# [13] = MV4-11, MV(4;11), 96 hours, single agent
# [14] = OCI-AML2, 96 hours, single agent
structure (smiles),measurement,setting,value
"O=C(CCCCCCNC(=O)c1cnc(N(c2ccccc2)c2ccccc2)nc1)NO [Rocilinostat, Ricolinostat]",Reduction of viability (compared to vehicle controls),"[1]; OCI-AML3, 96 hours",greater than 20%
same,Reduction of viability (compared to vehicle controls),"[2]; THP-1, 96 hours",greater than 20%
same,Reduction of viability (compared to vehicle controls),"[3]; HL-60, 96 hours",greater than 20%
same,Reduction of viability (compared to vehicle controls),"[4]; KASUMI-1, 96 hours",greater than 20%
same,Reduction of viability (compared to vehicle controls),"[5]; MOLM-13, 96 hours",greater than 20%
same,Reduction of viability (compared to vehicle controls),"[6]; MV(4;11), 96 hours",greater than 20%
same,Reduction of viability (compared to vehicle controls),"[7]; OCI-AML2, 96 hours",greater than 20%
"Nc1ncn([C@H]2C[C@H](O)[C@@H](CO)O2)c(=O)n1 [Decitabine, 5-aza-2′-deoxycytidine]",EC50,"[1]; OCI-AML-3, 96 h",100 nM
same,Reduction of viability (compared to vehicle controls),"[1]; OCI-AML3, 96 hours",greater than 20%
same,EC50,"[2]; THP-1, 96 h",95 nM
same,Reduction of viability (compared to vehicle controls),"[2]; THP-1, 96 hours",greater than 20%
same,Reduction of viability (compared to vehicle controls),"[3]; HL-60, 96 hours",greater than 20%
same,EC50,"[3]; HL-60, 96 h",42.1 nM
same,EC50,"[4]; Kasumi 1, 96 h",24 nM
same,Reduction of viability (compared to vehicle controls),"[4]; KASUMI-1, 96 hours",greater than 20%
same,EC50,"[5]; MOLM-13, 96 h",12.6 nM
same,Reduction of viability (compared to vehicle controls),"[5]; MOLM-13, 96 hours",greater than 20%
same,EC50,"[6]; MV4-11, 96 h",79.5 nM
same,Reduction of viability (compared to vehicle controls),"[6]; MV(4;11), 96 hours",greater than 20%
same,EC50,"[7]; OCI-AML2, 96 h",36 nM
same,Reduction of viability (compared to vehicle controls),"[7]; OCI-AML2, 96 hours",greater than 20%
"O=C(CCCCCCC(=O)Nc1ccccc1)NO [SAHA, suberanilohydroxamic acid]",Reduction of viability (compared to vehicle controls),"[1]; OCI-AML3, 96 hours",greater than 20%
same,Reduction of viability (compared to vehicle controls),"[2]; THP-1, 96 hours",greater than 20%
same,Reduction of viability (compared to vehicle controls),"[3]; HL-60, 96 hours",greater than 20%
same,Reduction of viability (compared to vehicle controls),"[4]; KASUMI-1, 96 hours",greater than 20%
same,Reduction of viability (compared to vehicle controls),"[5]; MOLM-13, 96 hours",greater than 20%
same,Reduction of viability (compared to vehicle controls),"[6]; MV(4;11), 96 hours",greater than 20%
same,Reduction of viability (compared to vehicle controls),"[7]; OCI-AML2, 96 hours",greater than 20%
"N[C@H]1CC[C@H](N[C@@H]2C[C@H]2c2ccccc2)CC1 [ORY-1001, (trans)-N1-((1R,2S)-2-phenylcyclopropyl)cyclohexane-1,4-diamine]",cytotoxicity at 0.1 µM,"[8]; Homo sapiens, MOLT-4, 240 h, highest ORY-1001 concentration 100 nM, read-out: Viability reduction (compared to vehicles)",> 20%
same,EC50 (viability),[8],sub-nanomolar range
same,Effect on viability,[9],not affecting the viability
same,Reduction of viability (compared to vehicle controls),"[1]; OCI-AML3, 96 hours",greater than 20%
same,EC50 (viability),"[1]; OCI-AML3, 96 hours, single agent",sub-nanomolar range
same,Reduction of viability (compared to vehicle controls),"[2]; THP-1, 96 hours",greater than 20%
same,EC50 (viability),"[2]; THP-1, 96 hours, single agent",sub-nanomolar range
same,Reduction of viability (compared to vehicle controls),"[3]; HL-60, 96 hours",greater than 20%
same,EC50 (viability),"[3]; HL-60, 96 hours, single agent",sub-nanomolar range
same,Reduction of viability (compared to vehicle controls),"[4]; KASUMI-1, 96 hours",greater than 20%
same,EC50 (viability),[4]; [10],sub-nanomolar range
same,Reduction of viability (compared to vehicle controls),"[5]; MOLM-13, 96 hours",greater than 20%
same,EC50 (viability),[5]; [11],sub-nanomolar range
same,Reduction of viability (compared to vehicle controls),"[6]; MV(4;11), 96 hours",greater than 20%
same,EC50 (viability),"[6]; MV(4;11), 96 hours, single agent",sub-nanomolar range
"Nc1ccn([C@@H]2O[C@H](CO)[C@@H](O)[C@@H]2O)c(=O)n1 [ARA-C, arabinofuranosyl cytidine]",EC50,[1]; [12],145 nM
same,Reduction of viability (compared to vehicle controls),"[1]; OCI-AML3, 96 hours",greater than 20%
same,EC50,"[2]; THP-1, 96 hours, single agent",252 nM
same,Reduction of viability (compared to vehicle controls),"[2]; THP-1, 96 hours",greater than 20%
same,Reduction of viability (compared to vehicle controls),"[3]; HL-60, 96 hours",greater than 20%
same,EC50,"[3]; HL-60, 96 hours, single agent",43.5 nM
same,EC50,[4]; [10],28.7 nM
same,Reduction of viability (compared to vehicle controls),"[4]; KASUMI-1, 96 hours",greater than 20%
same,EC50,[5]; [11],78.5 nM
same,Reduction of viability (compared to vehicle controls),"[5]; MOLM-13, 96 hours",greater than 20%
same,EC50,[6]; [13],198 nM
same,Reduction of viability (compared to vehicle controls),"[6]; MV(4;11), 96 hours",greater than 20%
same,EC50,[7]; [14],26.5 nM
same,Reduction of viability (compared to vehicle controls),"[7]; OCI-AML2, 96 hours",greater than 20%
Nc1ccccc1NC(=O)c1ccc(CNC(=O)OCc2cccnc2)cc1 [Entinostat],EC50,[1]; [12],55.2 nM
same,Reduction of viability (compared to vehicle controls),"[1]; OCI-AML3, 96 hours",greater than 20%
same,EC50,"[2]; THP-1, 96 hours, single agent",230 nM
same,Reduction of viability (compared to vehicle controls),"[2]; THP-1, 96 hours",greater than 20%
same,Reduction of viability (compared to vehicle controls),"[3]; HL-60, 96 hours",greater than 20%
same,EC50,"[3]; HL-60, 96 hours, single agent",42 nM
same,EC50,[4]; [10],168 nM
same,Reduction of viability (compared to vehicle controls),"[4]; KASUMI-1, 96 hours",greater than 20%
same,EC50,[5]; [11],52 nM
same,Reduction of viability (compared to vehicle controls),"[5]; MOLM-13, 96 hours",greater than 20%
same,EC50,[6]; [13],98.5 nM
same,Reduction of viability (compared to vehicle controls),"[6]; MV(4;11), 96 hours",greater than 20%
same,EC50,[7]; [14],106 nM
same,Reduction of viability (compared to vehicle controls),"[7]; OCI-AML2, 96 hours",greater than 20%
